The text below walks through data of publication PMC3429931 (Biochemical Journal, 2012).

A word on the Kd: it is the free concentration of one partner at which half of the binding sites on the other are occupied at equilibrium, for simple one-to-one binding. One may read the Km as the concentration of substrate that gives half-maximal velocity.

Molecules are shown by their SMILES.

In experiment [1] the target is T1, Dat (dopamine N-acetyltransferase), wild-type / full-length (Drosophila melanogaster, UniProt Q94521). The experiment in a line: isothermal titration calorimetry. The class given is binding. A general note: ITC needs no label: the signal is the heat of the interaction.
T1 sequence (Q94521 36-275): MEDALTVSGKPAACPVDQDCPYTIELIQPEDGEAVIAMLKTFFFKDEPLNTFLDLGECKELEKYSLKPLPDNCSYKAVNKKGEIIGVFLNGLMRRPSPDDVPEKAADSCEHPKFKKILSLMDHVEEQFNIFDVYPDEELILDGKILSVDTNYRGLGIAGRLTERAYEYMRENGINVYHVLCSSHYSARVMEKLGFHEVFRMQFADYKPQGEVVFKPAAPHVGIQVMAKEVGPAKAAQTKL
Experiment [2] deals with Dat (dopamine N-acetyltransferase), wild-type / full-length (Drosophila melanogaster, UniProt Q94521, S221A). The experiment in a line: Ellman's reagent. The settings on record: read-out: Tryptamine Km; 30 °C, 50 mM sodium phosphate pH 7.2, 500 mM NaCl, 2 mM EDTA, 2 mM AcCoA.
Sequence of Dat (dopamine N-acetyltransferase), wild-type / full-length (Drosophila melanogaster, UniProt Q94521, S221A) (Q94521 36-275 S221A): as the sequence (Q94521 36-275) above, with S186A counted along it
Experiment [3] deals with Dat (dopamine N-acetyltransferase), wild-type / full-length (Drosophila melanogaster, UniProt Q94521, S217A). The experiment in a line: Ellman's reagent. The settings on record: read-out: Tryptamine Km; 30 °C, 50 mM sodium phosphate pH 7.2, 500 mM NaCl, 2 mM EDTA, 2 mM AcCoA. (DTNB colorimetry detects thiols as they appear.)
Sequence of Dat (dopamine N-acetyltransferase), wild-type / full-length (Drosophila melanogaster, UniProt Q94521, S217A) (Q94521 36-275 S217A): as the sequence (Q94521 36-275) above, with S182A counted along it
The target of experiment [4] is Dat (dopamine N-acetyltransferase), wild-type / full-length (Drosophila melanogaster, UniProt Q94521, E82A). The experiment in a line: Ellman's reagent. The settings on record: read-out: Tryptamine Km; 30 °C, 50 mM sodium phosphate pH 7.2, 500 mM NaCl, 2 mM EDTA, 2 mM AcCoA.
Sequence of Dat (dopamine N-acetyltransferase), wild-type / full-length (Drosophila melanogaster, UniProt Q94521, E82A) (Q94521 36-275 E82A): as the sequence (Q94521 36-275) above, with E47A counted along it
Experiment [5] addresses T1, Dat (dopamine N-acetyltransferase), wild-type / full-length. Briefly: Ellman's reagent. The settings on record: read-out: Tryptamine Km; 30 °C, 50 mM sodium phosphate pH 7.2, 500 mM NaCl, 2 mM EDTA, 2 mM AcCoA.
The target of experiment [6] is Dat (dopamine N-acetyltransferase), wild-type / full-length (Drosophila melanogaster, UniProt Q94521, Y220A). Briefly: Ellman's reagent. The settings on record: read-out: Tryptamine Km; 30 °C, 50 mM sodium phosphate pH 7.2, 500 mM NaCl, 2 mM EDTA, 2 mM AcCoA.
Sequence of Dat (dopamine N-acetyltransferase), wild-type / full-length (Drosophila melanogaster, UniProt Q94521, Y220A) (Q94521 36-275 Y220A): as the sequence (Q94521 36-275) above, with Y185A counted along it
Experiment [7] has as its target Dat (dopamine N-acetyltransferase), wild-type / full-length (Drosophila melanogaster, UniProt Q94521, Y220F). The experiment in a line: Ellman's reagent. The settings on record: read-out: Tryptamine Km; 30 °C, 50 mM sodium phosphate pH 7.2, 500 mM NaCl, 2 mM EDTA, 2 mM AcCoA.

Sequence of Dat (dopamine N-acetyltransferase), wild-type / full-length (Drosophila melanogaster, UniProt Q94521, Y220F) (Q94521 36-275 Y220F): as the sequence (Q94521 36-275) above, with Y185F counted along it

As for `NCCc1c[nH]c2ccc(O)cc12` [serotonin], in experiment [1], the Kd was 223 µM.

For `CC(=O)SCCNC(=O)CCNC(=O)[C@H](O)C(C)(C)COP(=O)(O)OP(=O)(O)OC[C@H]1O[C@@H](n2cnc3c(N)ncnc32)[C@H](O)[C@@H]1OP(=O)(O)O` [AcCoA], the Kd in experiment [1] was found to be 5.43 ± 1.09 µM.

Turning to `NCCc1ccc(O)c(O)c1` [dopamine], binding in experiment [1] was characterised by a dissociation constant (Kd) of 25.9 ± 2.5 µM.

As for `NCCc1c[nH]c2ccccc12` [tryptamine], the Km turned out to be 550 ± 70 µM in experiment [2]; 650 ± 90 µM in experiment [3]; 1200 ± 100 µM in experiment [4]; 470 ± 90 µM in experiment [5]; 490 ± 70 µM in experiment [6]; 470 ± 80 µM in experiment [7].
